We go through 16 compounds from US8633184B2, “Benzoazepin-oxy-acetic acid derivatives as PPAR-delta agonists used for the increase of HDL-C, lower LDL-C and lower cholesterol” (Janssen Pharmaceutica N.V., priority 2006, dated 2014).

Data set [1] can be described thus: Rat study: drug plasma levels (pharmacokinetics). Format: in vivo. An excerpt:
(§1) Rats carry the majority of serum cholesterol in the HDL lipoprotein fraction while humans carry the majority of serum cholesterol in LDL and VLDL lipoproteins. To mimic a human hypercholesterolemic state in a rodent model, Sprague Dawley rats were fed a diet high in cholesterol (Research Diets, C13002) for 6 days before treatment with the compounds for another 8 days while remaining on the diet. Under this dietary regimen, the vehicle controls (HC: High Cholesterol) typically have serum total cholesterol and LDL-C levels that are increased by 3-8 fold and serum HDL-C is decreased by approximately 30-50% compared with chow diet (lean) controls.
(§2) Compound 7 had no effect on serum triglycerides or liver weights.

The target in another data set is T1, PPARγ (Homo sapiens, UniProt P37231).
T1 construct: expressed in transfected cells; host or cells: HEK293
T1 sequence (P37231 238-503 limits assumed): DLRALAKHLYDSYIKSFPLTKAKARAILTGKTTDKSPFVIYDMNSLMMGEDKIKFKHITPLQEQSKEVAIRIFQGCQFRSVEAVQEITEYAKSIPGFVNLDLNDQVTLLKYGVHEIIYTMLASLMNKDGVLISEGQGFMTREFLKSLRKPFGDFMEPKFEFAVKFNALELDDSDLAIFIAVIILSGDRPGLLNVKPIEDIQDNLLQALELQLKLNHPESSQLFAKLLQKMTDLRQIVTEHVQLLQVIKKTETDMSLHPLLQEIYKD
In words: Transfection assay, GAL4-PPARγ LBD luciferase reporter in HEK293 cells. The conditions noted are these: 18-24 hrs. Format: cell-based. The protocol: (§3) HEK293 cells were grown in DMEM/F12 medium supplemented with 10% FBS and glutamine (Invitrogen) and incubated in a 5% CO2 incubator at 37° C. The cells were co-transfected using DMRIE-C reagent (Invitrogen) in serum free medium (Opti-MEM, Invitrogen) with two mammalian expression plasmids, one containing the DNA sequence coding for the ligand binding domains of either PPARα, γ or δ fused to the yeast GAL4 DNA binding domain and the other containing the promoter sequence of the yeast GAL4 (UAS) fused to the firefly luciferase cDNA reporter. The next day, the medium was changed to DMEM/F12 medium supplemented with 5% charcoal treated serum (Hyclone) and glutamine. After 6 hrs the cells were trypsinized and seeded at a density of 50,000 cells/well into 96 well plates and incubated overnight as above. The cells were then treated with test compounds or vehicle and incubated for 18-24 hrs as above. Luciferase reporter activity was measured using the Steady-Glo Luciferase Assay Kit from Promega. DMRIE-C Reagent was purchased from GIBCO Cat. No. 10459-014. OPTI-MEM I Reduced Serum Medium was purchased from GIBCO (Cat. No. 31985). Steady-Glo Luciferase Assay Kit was purchased from Promega (Part #E254B).
(§4) A variety of example compounds have been made and tested, with a range of in vitro results. Below, in Table 2, are representative compounds and data; in some cases, where multiple EC50's are shown, multiple measurements were taken. Naturally, different compounds in Formula (I) may have not activities identical to any one compound below.
(In general: A reporter such as luciferase makes a cellular process visible.)

Data set [2] in a line: Rat study: drug plasma levels (pharmacokinetics). The conditions noted are these: for Cmax / half-life / AUC(0-t): Sprague Dawley, plasma. Format: in vivo.
For another data set, the target named is T2, PPARα (Homo sapiens, UniProt Q07869).
T2 construct: expressed in transfected cells; host or cells: HEK293
T2 sequence (Q07869 239-466 limits assumed): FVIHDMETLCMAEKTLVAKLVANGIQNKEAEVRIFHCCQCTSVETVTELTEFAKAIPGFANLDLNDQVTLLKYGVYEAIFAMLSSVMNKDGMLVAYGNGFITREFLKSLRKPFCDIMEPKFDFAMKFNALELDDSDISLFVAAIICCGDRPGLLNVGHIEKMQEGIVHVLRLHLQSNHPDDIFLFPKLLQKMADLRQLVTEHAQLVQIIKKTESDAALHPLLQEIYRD
In words: Transfection assay, GAL4-PPARα LBD luciferase reporter in HEK293 cells. Format: cell-based. The settings on record: 18-24 hrs. The protocol: as §3, §4

In another data set the target is T3, PPARδ (Homo sapiens, UniProt Q03181).
T3 construct: expressed in transfected cells; host or cells: HEK293
T3 sequence (Q03181 211-439 limits assumed): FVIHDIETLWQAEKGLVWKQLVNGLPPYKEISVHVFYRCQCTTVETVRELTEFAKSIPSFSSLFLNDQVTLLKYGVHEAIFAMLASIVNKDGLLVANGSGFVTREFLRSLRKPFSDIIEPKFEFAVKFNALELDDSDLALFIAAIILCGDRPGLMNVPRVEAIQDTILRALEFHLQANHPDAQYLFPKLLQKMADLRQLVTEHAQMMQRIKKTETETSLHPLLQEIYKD
Briefly: Transfection assay, GAL4-PPARδ LBD luciferase reporter in HEK293 cells. Format: cell-based. The settings on record: 18-24 hrs. The protocol: as §3, §4

The test system of data set [3] is Sprague Dawley rats fed a diet high in cholesterol. In words: Rat study: high cholesterol diet, serum lipids and liver weights after 8 days treatment. Format: in vivo. The conditions noted are these: for HDL-C / LDL-C / Total Cholesterol / Triglycerides / Liver Weights: 8 days.
Text: as §1, §2

Where “and” joins values, the source holds several entries; their conditions need not be identical. Equal entries are not always repeated. Where two headings read alike, the source gives them in different places.

Broadly, the Tmax is the time at which the peak concentration occurs. For orientation: EC50 means the midpoint of the concentration-response curve. Low values mean greater potency, high ones weaker potency. The term Cmax denotes the highest concentration seen after dosing. Turning to `O=C(O)COc1ccc2c(c1)CCN(Cc1ccc(-c3ccc(C(F)(F)F)cc3)s1)CC2` [compound 7], the “drug plasma levels (Cmax and AUC), in words” value in data set [1] is listed as “dose-related increases”. For the same compound, the Tmax came out at 2.5 h in data set [1] (Dose 0.1, Multiple, n = 2); 3 h in data set [1] (Dose 0.3, Multiple); 4 h in data set [1] (Dose 1, Multiple, n = 2); 5.5 h in data set [1] (Dose 3, Single, n = 2); 5 h in data set [2] (Dose 3, Multiple). Also, the AUC(0-t) in data set [1] (Sprague Dawley, plasma, 0.1 mg/kg, Dose 0.1, Multiple, n = 2, read-out: AUC0-24) is 772 ng·h/mL; in data set [1] (Sprague Dawley, plasma, 3 mg/kg, Dose 3, Multiple, read-out: AUC0-24), 37100 ng·h/mL; in data set [2] (0.3 mg/kg, Dose 0.3, Multiple, read-out: AUC0-24), 1640 ng·h/mL; in data set [2] (1 mg/kg, Dose 1, Multiple, n = 2, read-out: AUC0-24) it was 10900 ng·h/mL; in data set [2] (3 mg/kg, Dose 3, Single, n = 2, read-out: AUC0-24), 14200 ng·h/mL. The half-life in data set [1] (Sprague Dawley, plasma, 0.3 mg/kg, Dose 0.3, Multiple, read-out: t½) is roughly 22 h; in data set [2] (0.1 mg/kg, Dose 0.1, Multiple, n = 2, read-out: t½), roughly 13 h; in data set [2] (3 mg/kg, Dose 3, Multiple, read-out: t½), roughly 36 h; in data set [2] (3 mg/kg, Dose 3, Single, n = 2, read-out: t½), roughly 29 h. Besides, the EC50 was greater than 3000 nM at PPARγ; greater than 3000 nM on PPARα; 14.5 nM and 18.9 nM on PPARδ. Moreover, the Cmax in data set [2] (0.1 mg/kg, Dose 0.1, Multiple, n = 2) turned out to be 57 ng/mL; in data set [2] (0.3 mg/kg, Dose 0.3, Multiple), 124 ng/mL; in data set [2] (1 mg/kg, Dose 1, Multiple, n = 2), 595 ng/mL; in data set [2] (3 mg/kg, Dose 3, Multiple), 2030 ng/mL; in data set [2] (3 mg/kg, Dose 3, Single, n = 2), 733 ng/mL. The HDL-C is reported as 24.2 ± 2.9 mg/dL in data set [3] (0.1 mg/kg), 29.6 ± 1.4 mg/dL in data set [3] (0.3 mg/kg), 31.8 ± 0.9 mg/dL in data set [3] (1 mg/kg) and 39.6 ± 1.6 mg/dL in data set [3] (3 mg/kg). Further, the LDL-C is 32.7 ± 4.7 mg/dL in data set [3] (0.1 mg/kg), 31.2 ± 1.5 mg/dL in data set [3] (0.3 mg/kg), 24.4 ± 1.3 mg/dL in data set [3] (1 mg/kg) and 20.6 ± 1.5 mg/dL in data set [3] (3 mg/kg). Further, the “Total Cholesterol” value in data set [3] (0.1 mg/kg) was found to be 239.0 ± 22.4 mg/dL; in data set [3] (0.3 mg/kg), 233.2 ± 9.5 mg/dL; in data set [3] (1 mg/kg), 173.3 ± 7.9 mg/dL; in data set [3] (3 mg/kg) it was 152.2 ± 8.5 mg/dL. The Triglycerides in data set [3] (0.1 mg/kg) came out at 269.8 ± 27.8 mg/dL; in data set [3] (0.3 mg/kg), 264.7 ± 29.8 mg/dL; in data set [3] (1 mg/kg), 237.7 ± 25.4 mg/dL; in data set [3] (3 mg/kg), 299.5 ± 35.9 mg/dL. Further, the “Liver Weights” value is reported as 25.0 ± 0.8 in data set [3] (0.3 mg/kg), 23.9 ± 0.5 in data set [3] (1 mg/kg) and 27.2 ± 0.9 in data set [3] (3 mg/kg). Moreover, the “LDL-C levels (effect in words)” value in data set [3] (8 days treatment) was “significant decreases”. For the same compound, the “liver weights (effect in words)” value in data set [3] (8 days treatment) was “no effect”. For the same compound, in data set [3] (8 days treatment), the “serum total cholesterol levels (effect in words)” value is on record as “significant decreases”. Also, the “serum triglycerides (effect in words)” value in data set [3] (8 days treatment) is reported as “no effect”. For the same compound, in data set [3] (8 days treatment, achieving the levels of the chow fed controls), the “HDL-C levels (effect in words)” value was “significantly increased”.

For `CC(C)(Oc1ccc2c(c1)CCN(Cc1cnn(-c3ccc(C(F)(F)F)cc3)c1)CC2)C(=O)O` [compound 21], the EC50 was greater than 3000 nM at PPARγ, greater than 3000 nM on PPARα and 422 nM on PPARδ.

On to `O=C(O)COc1ccc2c(c1)CCN(Cc1ccc(-c3ccc(OC(F)(F)F)cc3)o1)CC2` [compound 34], for which the half-maximal effective concentration (EC50) on PPARγ is greater than 3000 nM; at PPARα, greater than 3000 nM; on PPARδ, 373 nM.

Regarding `Cc1c(-c2ccc(C(F)(F)F)cc2)csc1CN1CCc2ccc(OCC(=O)O)cc2CC1` [compound 15], the EC50 is greater than 3000 nM at PPARγ, greater than 3000 nM at PPARα and 104 nM at PPARδ.

As to `O=C(O)COc1ccc2c(c1)CCN(Cc1cccc(-c3ccc(C(F)(F)F)cc3)c1)CC2` [compound 47], the EC50 at PPARγ, on PPARα and on PPARδ was greater than 3000 nM in each case.

`Cc1nc(-c2ccc(C(F)(F)F)cc2)oc1CN1CCc2ccc(OC(C)(C)C(=O)O)cc2CC1` [compound 19]: the EC50 was greater than 3000 nM on PPARγ, greater than 3000 nM on PPARα and 231 nM on PPARδ.

Take `COc1ccc(-c2ccc(CN3CCc4ccc(OCC(=O)O)cc4CC3)o2)cc1` [compound 44]: the EC50 was greater than 3000 nM on PPARγ, greater than 3000 nM at PPARα and greater than 1000 nM on PPARδ.

Consider `CC(C)(Oc1ccc2c(c1)CCN(Cc1cc(-c3ccc(C(F)(F)F)cc3)on1)CC2)C(=O)O` [compound 12], for which the figures for the EC50 at PPARγ, on PPARα and at PPARδ were greater than 3000 nM, greater than 1000 nM and 122 nM, respectively.

With `O=C(O)C1(Oc2ccc3c(c2)CCN(Cc2cnc(-c4ccc(C(F)(F)F)cc4)s2)CC3)CC1` [compound 39], the EC50 at PPARγ was greater than 1000 nM; on PPARα, greater than 1000 nM; on PPARδ, 12 nM.

With `CCC(c1ccc(-c2ccc(C(F)(F)F)cc2)s1)N1CCc2ccc(OCC(=O)O)cc2CC1` (centres unmarked) [compound 30], the EC50 is greater than 3000 nM on PPARγ, greater than 3000 nM on PPARα and 0.9 nM at PPARδ.

As for `Cc1nc(-c2ccc(C(F)(F)F)cc2)sc1CN1CCc2ccc(OC(C)(C)C(=O)O)cc2CC1` [compound 6], the EC50 is greater than 3000 nM on PPARγ, greater than 1000 nM on PPARα and 243 nM on PPARδ.

Consider `CC(C)(Oc1ccc2c(c1)CCN(Cc1nc(-c3ccc(C(F)(F)F)cc3)ns1)CC2)C(=O)O` [compound 4], for which the EC50 on PPARγ is greater than 3000 nM; at PPARα, greater than 3000 nM; at PPARδ it was 95.2 nM.

On to `O=C(O)C1(Oc2ccc3c(c2)CCN(Cc2ccc(-c4ccc(C(F)(F)F)cc4)s2)CC3)CC1` [compound 37], for which the results for the EC50 at PPARγ, at PPARα and at PPARδ were greater than 3000 nM, greater than 3000 nM and 5.3 nM, respectively.

For the compound `CC1CN(Cc2ccc(-c3ccc(C(F)(F)F)cc3)o2)CCc2ccc(OCC(=O)O)cc21` (centres unmarked) [compound 26], the 50% effective concentration (EC50) on PPARγ is greater than 3000 nM; on PPARα it was greater than 3000 nM; at PPARδ it was 15.8 nM.

Consider `O=C(O)COc1ccc2c(c1)CCN(Cc1cnc(-c3ccc(C(F)(F)F)cc3)s1)CC2` [compound 24], for which the concentration for a half-maximal effect (EC50) at PPARγ is greater than 3000 nM; at PPARα, greater than 1000 nM; at PPARδ it was 27.1 nM and 22 nM.

With `O=C(O)COc1ccc2c(c1)CCN(Cc1cnn(-c3ccc(C(F)(F)F)cc3)c1)CC2` [compound 20], the figures for the EC50 at PPARγ, at PPARα and at PPARδ were greater than 3000 nM, greater than 3000 nM and greater than 1000 nM, respectively.
